Patent publication US20030109583A1 (priority 2001, published 2003)
Like-named read-outs stand apart in the source and are kept apart here.

Columns and labels:
[1] = tested on: Escherichia coli ATCC 25922; assay: mouse septicemia model; assay type: in vivo, ICR male mice; conditions: mortality recorded for 7 days, E. coli ATCC 25922 mouse septicemia
Protocol: (§1) Mice were inoculated intraperitoneally with 2×10^5 cfu/mouse in 0.5 ml of Brain-Heart Infusion broth supplemented with 5% mucin. The compound was tested at 40, 20, 10, 5 and 2.5 mg/kg orally (PO) or at 20, 10, 5 and 2.5 mg/kg intravenously (IV) at 1 and 5 hours after bacterial inoculation. Controls included vehicle control (0.9% NaCl, 10 ml/kg) and an antibiotic control with ampicillin. Mortality was recorded for 7 days, and an ED50 was determined by non-linear regression.

Candida albicans = conditions: cited from earlier work
Herellea vaginicola = conditions: cited from earlier work
Enterobacter sp. = conditions: cited from earlier work
Pseudomonas aeruginosa = conditions: cited from earlier work
Trichophyton tonsurans = conditions: cited from earlier work
Proteius mirabilis = conditions: cited from earlier work
[2] = tested on: Streptococcus pneumoniae PenR; assay: in vitro MIC assay; assay type: cell-based; conditions: activity = MIC<128 μg/ml
Protocol: (§2) The ability of negamycin or deoxynegamycin, or pharmaceutically acceptable salts, prodrugs or isomers thereof, to treat bacterial infection was measured by in vitro assay described below. The compounds were kept in DMSO at 10 mg/ml and diluted into the test medium for the assay.
(§3) The strains used for assaying negamycin include the following: Acinetobacter baumanii, Citrobacter freundii, Enterobacter aerogenes, Haemophilus influenzae, Moraxella catarrhalis, Staphylococcus aureus MRSA, Staphylococcus aureus GISA, Staphylococcus epidermis, Streptococcus pneumoniae PenR, Streptococcus pneumoniae PenS, Streptococcus pyogenes, Helicobacter pylori and E. faecium. The strains used for assaying deoxynegamycin include the following: Haemophilus influenzae, Staphylococcus aureus MRSA, Staphylococcus aureus GISA, Staphylococcus epidermis, Streptococcus pneumoniae PenR, Streptococcus pneumoniae PenS, Streptococcus pyogenes and E. facium.
(§4) (1) Liquid Medium, Nutrient Broth and Mueller-Hinton Broth with 50% Human Serum
(§5) Compounds were suspended in a DMSO solution containing 10 mg/ml of compound. The appropriate amount of compound was added to a well of the first column of a 96-well microtiter plate containing 100 μl of Nutrient Broth (NB) or Mueller-Hinton Broth with 50% human serum (MHB+HS), for S. pneumoniae the NB medium was supplemented with 3 or 5% lysed horse blood. The rest of the wells in the row had 50 μl of the same medium in each well. After adding the compound to the first well and mixing thoroughly, 50 μl was taken out, and mixed to the second well of the row. This operation was repeated until the well of column 11 was reached and, after mixing, 50 μl were discarded. […] A concentration gradient of two-fold dilution was achieved by this method. A distinct compound was added to the first column well of the next row of the microtiter plate, and the procedure was repeated until all the rows are used. The plate was then ready for inoculation.
(§6) Bacterial strains were inoculated from a frozen stock on Mueller-Hinton Agar (Difco) or Blood Agar for S. pneumoniae and grown at 35° C. overnight. Cells were suspended in sterile saline to 0.5 McFarland standard. The inoculum was diluted approximately 1:1000 in the appropriate medium to reach an inoculum size of 10^5 cfu/ml (NB, NB supplemented with 3 or 5% lysed horse blood for S. pneumoniae, or MHB+HS). The diluted cell suspension was used to inoculate the microtiter plate containing two-fold dilution of the test compound. Each well of the microtiter plate received 50 μl of the cell suspension. The final volume was 100 μl (50 μl from the inoculum and 50 μl of the medium containing the compound).
(§7) The plates were incubated at 35° C. for 16 to 20 hours, the minimal inhibitory concentration (MIC) was recorded and was defined as the lowest concentration of compound that there is no visible growth.
(§8) (2) Solid Medium, Mueller-Hinton Agar with 50% Human Serum
(§9) Compounds were suspended in a DMSO solution containing 10 mg/ml of compound. The appropriate amount of compound was added to melted Mueller-Hinton Agar with 50% human serum (MHA+HS) at 50° C. The medium has been prepared by adding human serum to a melted Mueller-Hinton Agar (MHA) at two fold the concentration. MHA+HS has 50% human serum and normal strength of MHA. The appropriate concentration of compound was added to 4 ml of melted MHA+HS, and poured in a 6 cm diameter petri dish, and the agar was allowed to solidify at room temperature. A set of petri dishes, each dish containing half the concentration of compound of the previously poured dish, was made and used to assess the MIC in solid medium.
(§10) Bacterial strains were inoculated from a frozen stock on Mueller-Hinton Agar (Difco) or Blood Agar for S. pneumoniae and grown at 35° C. overnight. Cells are suspended in sterile saline to 0.5 McFarland standard. The inoculum was diluted approximately 1:10 in sterile saline water to obtain a bacterial suspension at 10^7 cfu/ml. […]

Staphylococcus epidermis = assay: in vitro MIC assay; assay type: cell-based; conditions: activity = MIC<128 μg/ml
Protocol: as §2, §3, §4, §5, §6, §7, §8, §9, §10

Streptococcus pyogenes = assay: in vitro MIC assay; assay type: cell-based; conditions: activity = MIC<128 μg/ml
Protocol: as §2, §3, §4, §5, §6, §7, §8, §9, §10

[3] = tested on: Streptococcus pneumoniae PenS; assay: in vitro MIC assay; assay type: cell-based; conditions: activity = MIC<128 μg/ml
Protocol: as §2, §3, §4, §5, §6, §7, §8, §9, §10

Haemophilus influenzae = assay: in vitro MIC assay; assay type: cell-based; conditions: activity = MIC<128 μg/ml
Protocol: as §2, §3, §4, §5, §6, §7, §8, §9, §10

[4] = tested on: Staphylococcus aureus GISA; assay: in vitro MIC assay; assay type: cell-based; conditions: activity = MIC<128 μg/ml
Protocol: as §2, §3, §4, §5, §6, §7, §8, §9, §10

E. faecium = assay: in vitro MIC assay; assay type: cell-based; conditions: activity = MIC<128 μg/ml
Protocol: as §2, §3, §4, §5, §6, §7, §8, §9, §10

[5] = tested on: Staphylococcus aureus MRSA; assay: in vitro MIC assay; assay type: cell-based; conditions: activity = MIC<128 μg/ml
Protocol: as §2, §3, §4, §5, §6, §7, §8, §9, §10

Pseudomonas fluorescens = conditions: cited from earlier work
Cryptococcus neoformans = conditions: cited from earlier work
Salmonella enteriditis = conditions: cited from earlier work
Shigella flexneri = conditions: cited from earlier work
Escherichia coli = conditions: cited from earlier work
Proteus rettgeri = conditions: cited from earlier work
Mycobacterium smegmatis = conditions: cited from earlier work
Serratia marcescens = conditions: cited from earlier work
Salmonella typhimurium = conditions: cited from earlier work
Salmonella typhi = conditions: cited from earlier work
Enterobacter aerogenes [6] = conditions: cited from earlier work
[7] = tested on: Trichophyton mentagraphytes; conditions: cited from earlier work
Staphylococcus aureus = conditions: cited from earlier work
Proteus vulgaris = conditions: cited from earlier work
Klebsiella pneumoniae = conditions: cited from earlier work
Shigella sonnei = conditions: cited from earlier work
Salmonella typhosa = conditions: cited from earlier work
Acinetobacter baumanii = assay: in vitro MIC assay; assay type: cell-based; conditions: Acinetobacter baumannii, activity = MIC<128 μg/ml
Protocol: as §2, §3, §4, §5, §6, §7, §8, §9, §10

Moraxella catarrhalis = assay: in vitro MIC assay; assay type: cell-based; conditions: activity = MIC<128 μg/ml
Protocol: as §2, §3, §4, §5, §6, §7, §8, §9, §10

Citrobacter freundii = assay: in vitro MIC assay; assay type: cell-based; conditions: activity = MIC<128 μg/ml
Protocol: as §2, §3, §4, §5, §6, §7, §8, §9, §10

Helicobacter pylori = assay: in vitro MIC assay; assay type: cell-based; conditions: activity = MIC<128 μg/ml
Protocol: as §2, §3, §4, §5, §6, §7, §8, §9, §10

Enterobacter aerogenes [8] = assay: in vitro MIC assay; assay type: cell-based; conditions: Klebsiella aerogenes, activity = MIC<128 μg/ml
Protocol: as §2, §3, §4, §5, §6, §7, §8, §9, §10

[9] = kept at 37° C. for one month, cited from earlier work
S. Aureus = assay: ED50 against S. Aureus; assay type: in vivo; conditions: Staphylococcus aureus, route not stated
Protocol: as §1

[10] = ATCC25922, intravenously (IV) at 1 and 5 hours after inoculation
[11] = ATCC25922, orally (PO) at 1 and 5 hours after inoculation

**Q.** For CC1(C)S[C@@H]2[C@H](NC(=O)[C@H](N)c3ccccc3)C(=O)N2[C@H]1C(=O)O [Ampicillin, reference compound], which ED50 [1, 10] is on record?
**A.** 6.8 mg/kg

**Q.** What about the ED50 [1, 11] of the same molecule?
**A.** 27.6 mg/kg

**Q.** What does the source list for CN(CC(=O)O)NC(=O)C[C@H](N)CCCN [Deoxynegamycin, D-3,6-diaminiohexanoic acid-2-(carboxymethyl)-2-methylhyrazide]?
**A.** reported as effective against organism (Candida albicans): effective; reported as effective against organism (Herellea vaginicola): effective; reported as effective against organism (Enterobacter sp.): effective; reported as effective against organism (Pseudomonas aeruginosa): effective; reported as effective against organism (Trichophyton tonsurans): effective; ED50 [1, 10]: 4.8 mg/kg; reported as effective against organism (Proteius mirabilis): effective; MIC [2]: exhibited activity; MIC (Staphylococcus epidermis): exhibited activity; MIC (Streptococcus pyogenes): exhibited activity; MIC [3]: exhibited activity; MIC (Haemophilus influenzae): exhibited activity; MIC [4]: exhibited activity; MIC (E. faecium): inactive; MIC [5]: exhibited activity; reported as effective against organism (Pseudomonas fluorescens): effective; reported as effective against organism (Cryptococcus neoformans): effective; reported as effective against organism (Salmonella enteriditis): effective; reported as effective against organism (Shigella flexneri): effective; reported as effective against organism (Escherichia coli): effective; reported as effective against organism (Proteus rettgeri): effective; reported as effective against organism (Mycobacterium smegmatis): effective; reported as effective against organism (Serratia marcescens): effective; reported as effective against organism (Salmonella typhimurium): effective; reported as effective against organism (Salmonella typhi): effective; reported as effective against organism (Enterobacter aerogenes [6]): effective; reported as effective against organism [7]: effective; reported as effective against organism (Staphylococcus aureus): effective; reported as effective against organism (Proteus vulgaris): effective; reported as effective against organism (Klebsiella pneumoniae): effective

**Q.** Which “reported as effective against organism” value (Herellea vaginicola) does the source give for CN(CC(=O)O)NC(=O)C[C@H](N)C[C@@H](O)CN [Negamycin, [2-{(3R,5R)-3,6-diamino-5-hydroxyhexanoyl}-1-methylhydrazino]acetic acid] here?
**A.** effective

**Q.** And the “reported as effective against organism” value (Enterobacter sp.)?
**A.** effective

**Q.** And the “reported as effective against organism” value (Pseudomonas aeruginosa)?
**A.** effective

**Q.** What about the “reported as effective against organism” value (Shigella sonnei) of the same molecule?
**A.** effective

**Q.** What about the ED50 [1, 10] of the same molecule?
**A.** 4.1 mg/kg

**Q.** And the ED50 [1, 11]?
**A.** 15.1 mg/kg

**Q.** And the “reported as effective against organism” value (Salmonella typhosa)?
**A.** effective

**Q.** And the MIC ([2]; read-out: MIC)?
**A.** < 128 µg/mL

**Q.** What about the MIC (Staphylococcus epidermis; read-out: MIC) of the same molecule?
**A.** < 128 µg/mL

**Q.** And the MIC (Streptococcus pyogenes; read-out: MIC)?
**A.** < 128 µg/mL

**Q.** And the MIC ([3]; read-out: MIC)?
**A.** < 128 µg/mL

**Q.** And the MIC (Haemophilus influenzae; read-out: MIC)?
**A.** < 128 µg/mL

**Q.** What about the MIC (Acinetobacter baumanii) of the same molecule?
**A.** < 128 µg/mL

**Q.** What about the MIC ([4]; read-out: MIC) of the same molecule?
**A.** < 128 µg/mL

**Q.** And the MIC (Moraxella catarrhalis)?
**A.** < 128 µg/mL

**Q.** And the MIC (Citrobacter freundii)?
**A.** < 128 µg/mL

**Q.** And the MIC (E. faecium)?
**A.** inactive

**Q.** And the MIC ([5]; read-out: MIC)?
**A.** < 128 µg/mL

**Q.** And the MIC (Helicobacter pylori)?
**A.** < 128 µg/mL

**Q.** And the MIC (Enterobacter aerogenes [8])?
**A.** < 128 µg/mL

**Q.** What about the “reported as effective against organism” value (Pseudomonas fluorescens) of the same molecule?
**A.** effective

**Q.** And the “reported as effective against organism” value (Salmonella enteriditis)?
**A.** effective

**Q.** What about the “activity reduced to” value ([9]; in 0.02N HCl aqueous solution) of the same molecule?
**A.** 50%

**Q.** And the “activity reduced to” value ([9]; in aqueous solution)?
**A.** 63%

**Q.** And the “reported as effective against organism” value (Shigella flexneri)?
**A.** effective

**Q.** And the “reported as effective against organism” value (Escherichia coli)?
**A.** effective

**Q.** What about the “reported as effective against organism” value (Proteus rettgeri) of the same molecule?
**A.** effective

**Q.** What about the “reported as effective against organism” value (Mycobacterium smegmatis) of the same molecule?
**A.** effective

**Q.** What about the ED50 (S. Aureus) of the same molecule?
**A.** 16.8 mg/kg

**Q.** What about the “reported as effective against organism” value (Serratia marcescens) of the same molecule?
**A.** effective

**Q.** And the “reported as effective against organism” value (Salmonella typhimurium)?
**A.** effective

**Q.** And the “reported as effective against organism” value (Salmonella typhi)?
**A.** effective

**Q.** And the “reported as effective against organism” value (Staphylococcus aureus)?
**A.** effective

**Q.** What about the “reported as effective against organism” value (Proteus vulgaris) of the same molecule?
**A.** effective

**Q.** And the “reported as effective against organism” value (Klebsiella pneumoniae)?
**A.** effective
